Test results from the supplement of paper PMC10132981, “Formate overflow drives toxic folate trapping in MTHFD1 inhibited cancer cells” (Nature Metabolism, 2023).

Experiments:
Experiment in all cases: EC50 for viability (resazurin, 96 h)
SW620 MTHFD2 -/- = details: RPMI+GlutaMAX (5% dFBS, 1% P/S)
SW620 = test system: SW620
HCT116 = details: RPMI+GlutaMAX (10% FBS, 1% P/S)
PA-TU-8988T = details: DMEM+GlutaMAX (5% dFBS, 1% P/S)
SW620 MTHFD2-/- = details: RPMI+GlutaMAX (5% dFBS, 1% P/S)
SW620 WT = test system: SW620 WT

Nc1nc(N)c(NC(=O)Nc2cnc(C(=O)N[C@@H](CCc3nnn[nH]3)C(=O)O)c(F)c2)c(=O)[nH]1
Details	EC50 for viability [nM]
HCT116, metabolite supplement: Hypoxanthine	6.57
HCT116, metabolite supplement: Vehicle	13.1
PA-TU-8988T, metabolite supplement: Thymidine	1.6
PA-TU-8988T, metabolite supplement: Vehicle	1.31
SW620 MTHFD2 -/-, metabolite supplement: Hypoxanthine	1.53
SW620 MTHFD2 -/-, metabolite supplement: Sodium Formate	12.5
SW620 MTHFD2 -/-, metabolite supplement: Thymidine	0.604
SW620 MTHFD2 -/-, metabolite supplement: Thymidine + Sodium Formate	129
SW620 MTHFD2 -/-, metabolite supplement: Vehicle	0.506
SW620 MTHFD2-/-, metabolite supplement: Hypoxanthine + Formate	15.8
SW620 MTHFD2-/-, metabolite supplement: Vehicle	0.501

Details	EC50 for viability [nM]
SW620 WT, RPMI+GlutaMAX (5% dFBS, 1% P/S), metabolite supplement: Adenine	15.3
SW620 WT, RPMI+GlutaMAX (5% dFBS, 1% P/S), metabolite supplement: Adenosine	16.6
SW620 WT, RPMI+GlutaMAX (5% dFBS, 1% P/S), metabolite supplement: Guanosine	19.9
SW620 WT, RPMI+GlutaMAX (5% dFBS, 1% P/S), metabolite supplement: Hypoxanthine	14.1
SW620 WT, RPMI+GlutaMAX (5% dFBS, 1% P/S), metabolite supplement: Hypoxanthine + AICAr 10 µM	12.3
SW620 WT, RPMI+GlutaMAX (5% dFBS, 1% P/S), metabolite supplement: Hypoxanthine + AICAr 30 µM	16.4
SW620 WT, RPMI+GlutaMAX (5% dFBS, 1% P/S), metabolite supplement: Hypoxanthine + AICAr 50 µM	20
SW620 WT, RPMI+GlutaMAX (5% dFBS, 1% P/S), metabolite supplement: Hypoxanthine + AICAr 100 µM	> 10000
SW620 WT, RPMI+GlutaMAX (5% dFBS, 1% P/S, 10 uM Hypoxanthine), metabolite supplement: Thymidine 0.1 uM	16.5
SW620 WT, RPMI+GlutaMAX (5% dFBS, 1% P/S, 10 uM Hypoxanthine), metabolite supplement: Thymidine 0.5 uM	24.3
SW620 WT, RPMI+GlutaMAX (5% dFBS, 1% P/S, 10 uM Hypoxanthine), metabolite supplement: Thymidine 1uM	13.7
SW620 WT, RPMI+GlutaMAX (5% dFBS, 1% P/S, 10 uM Hypoxanthine), metabolite supplement: Thymidine 5uM	> 10000
SW620 WT, RPMI+GlutaMAX (5% dFBS, 1% P/S, 10 uM Hypoxanthine), metabolite supplement: Thymidine 10 uM	> 10000
SW620 WT, RPMI+GlutaMAX (5% dFBS, 1% P/S, 10 uM Hypoxanthine), metabolite supplement: Thymidine 25 uM	> 10000
SW620 WT, RPMI+GlutaMAX (5% dFBS, 1% P/S, 10 uM Hypoxanthine), metabolite supplement: Thymidine 50 uM	> 10000
SW620 WT, RPMI+GlutaMAX (5% dFBS, 1% P/S, 10 uM Hypoxanthine), metabolite supplement: Vehicle	13.6
SW620 WT, RPMI+GlutaMAX (5% dFBS, 1% P/S, 50 uM Hypoxanthine), metabolite supplement: Thymidine 0.1 uM	17.5
SW620 WT, RPMI+GlutaMAX (5% dFBS, 1% P/S, 50 uM Hypoxanthine), metabolite supplement: Thymidine 0.5 uM	14.5
SW620 WT, RPMI+GlutaMAX (5% dFBS, 1% P/S, 50 uM Hypoxanthine), metabolite supplement: Thymidine 1uM	12.5
SW620 WT, RPMI+GlutaMAX (5% dFBS, 1% P/S, 50 uM Hypoxanthine), metabolite supplement: Thymidine 5uM	> 10000
SW620 WT, RPMI+GlutaMAX (5% dFBS, 1% P/S, 50 uM Hypoxanthine), metabolite supplement: Thymidine 10 uM	> 10000
SW620 WT, RPMI+GlutaMAX (5% dFBS, 1% P/S, 50 uM Hypoxanthine), metabolite supplement: Thymidine 25 uM	> 10000
SW620 WT, RPMI+GlutaMAX (5% dFBS, 1% P/S, 50 uM Hypoxanthine), metabolite supplement: Thymidine 50 uM	> 10000
SW620 WT, RPMI+GlutaMAX (5% dFBS, 1% P/S, 50 uM Hypoxanthine), metabolite supplement: Vehicle	13
SW620, HPLM (5% dFBS, 1% P/S), metabolite supplement: Vehicle	12.7
SW620, RPMI+GlutaMAX (5% FBS, 1% P/S), metabolite supplement: Vehicle	13.4
SW620, RPMI+GlutaMAX (5% dFBS, 1% P/S), metabolite supplement: 50 µM Hypoxanthine	14
SW620, RPMI+GlutaMAX (5% dFBS, 1% P/S), metabolite supplement: Vehicle	14.7
SW620, RPMI+GlutaMAX (10% FBS, 1% P/S), metabolite supplement: Folic acid	597
SW620, RPMI+GlutaMAX (10% FBS, 1% P/S), metabolite supplement: Folinic acid	687
SW620, RPMI+GlutaMAX (10% FBS, 1% P/S), metabolite supplement: Hypoxanthine	10.4
SW620, RPMI+GlutaMAX (10% FBS, 1% P/S), metabolite supplement: Sodium Formate	12.7
SW620, RPMI+GlutaMAX (10% FBS, 1% P/S), metabolite supplement: Thymidine	> 10000
SW620, RPMI+GlutaMAX (10% FBS, 1% P/S), metabolite supplement: Thymidine + Folic acid	1920
SW620, RPMI+GlutaMAX (10% FBS, 1% P/S), metabolite supplement: Vehicle	9.47
